According to patent publication US20110319484A1, “NEUROPROTECTIVE COMPOUNDS” (Parque Tecnologico de Ciencias de la Salud, priority 2009, published 2011):
“Also recorded” adds a separate entry of the source.

Assays:
[1] = Crossing of the blood-brain barrier by PAMPA in vitro assay; format: in vitro ADME, pig; conditions: acid forms, 100 μM, pH 7.4, 18 h
Protocol: To that end, the PAMPA (Parallel Artificial Membrane Permeation Assay) assay was used, which uses a sandwich system contemplating the crossing of compounds by means of passive diffusion, preventing active transport.
A mixture of commercial lipids derived from pig brain with a phospholipid composition very similar to that which forms the human BBB, called PBL (Porcine Polar Brain Lipid), was used to mimic the BBB, and it was stored at −20° C. dissolved in dodecane at 100 μg/ml in glass vials. The verapamil and theophylline were prepared at 10 mM in DMSO, whereas the acid forms of NST0003, NST0004 and NST0005 were prepared in water and were activated with 0.1 N NaOH at 4° C. for 12 h.
At the time of the assay, 1.5 ml of the compounds to be evaluated at 100 μM were prepared in a phosphate buffer at pH 7.4, maintaining a constant concentration of DMSO of 1%. 5 μl of PBL at 20 μg/ml were added in a 96-well filter plate, with a polyvinylidene fluoride (PVDF) membrane, with a pore size of […] (MAIPN4550, Millipore). After 2 minutes, 300 μl of the phosphate buffer used to dilute the compounds were added. This plate was considered the “acceptor” plate and was placed in the top part of the sandwich. 300 μl of the compounds were added at 100 μM on another 96-well plate which is assembled with the previous one (MATRNP550 of Millipore) (called “donor”) and in triplicate. […] After that time, 100 μl of the wells of the donor plates and of the acceptor plates were transferred to a special 96-well plate for ultraviolet (UV) reading. […] The plate was introduced in a spectrophotometer in which a scan was carried out in UV from 230 to 498 nm, with readings every 4 nm. From the data provided by the spectrophotometer the percentage of barrier crossing as well as the effective permeability (Pe) were calculated by applying the following formula:
[formula] […] [formula] • [Drug]acceptor=Absorbance of the acceptor well • [Drug]equilibrium=Absorbance of the mean of the basal wells/2 • VA=Volume of the acceptor well=0.3 cm^3 • VD=Volume of the donor well=0.3 cm^3 • Area=0.24 cm^2 • Time=64,000 s

[2] = system: human neuroblastoma SK-N-MC cells; test: Protection against neuronal death induced by endoplasmic reticulum stress (tunicamycin), WST-1 test; format: cell-based; conditions: tunicamycin 20 μg/ml, 22 h, at 20 μg/ml, protection at 4, 10, 20 and 40 μg/ml
Protocol: To that end, an assay was performed on human neuroblastoma SK-N-MC cells in culture from the ATCC (HTB-10); in all cases strict rules of sterility were followed and the manipulation was performed in class II biological safety cabinets following European standard EN 12469. The cells were maintained in MEM culture medium supplemented with 1 mM sodium pyruvate, 2 mM L-glutamine, 0.1 mM non-essential amino acids, 0.05 mg/ml gentamicin and 10% fetal bovine serum.
The inhibition caused by the compound (1S,3R,7S,8S,8aR)-1,2,3,7,8,8a-hexahydro-3,7-dimethyl-8-[2-[(2R,4R)-tetrahydro-4-hydroxy-6-oxo-2H-pyran-2-yl]ethyl-1-naphthalenyl 2,2-dimethylpropanoate (NST0005) of cell death caused by treatment with tunicamycin (Tm), which generates endoplasmic reticulum stress by inhibition of N-glycosylation of proteins, which triggers cell death, was analyzed. […]
The cells were incubated (at 37° C. and 5% CO2) with these treatments for 22 h, after which time the WST-1 reagent (Roche) was added. The WST-1 Test, as has been previously mentioned, is based on the measurement of the metabolic activity; the metabolically active (live) cells reduce tetrazolium salt to formazan by means of the succinate-tetrazolium reductase system (of the mitochondrial respiratory chain) and the formazan which is formed can be detected colorimetrically since it has an absorbance of 440 nm. […]

SMILES | crossing of the blood-brain barrier [1] | maximum reduction of the percentage of cell death relating to death caused by Tunicamycin [2]
CCC(=O)O[C@H]1C[C@@H](C)C=C2C=C[C@H](C)[C@H](CC[C@@H]3C[C@@H](O)CC(=O)O3)[C@H]21 [NST0003, (1S,3R,7S,8S,8aR)-1,2,3,7,8,8a-hexahydro-3,7-dimethyl-8-[2-[(2R,4R)-tetrahydro-4-hydroxy-6-oxo-2H-pyran-2-yl]ethyl-1-naphthalenyl propanoate] | capable of crossing the blood-brain barrier | 
C[C@H]1C=C2C=C[C@H](C)[C@H](CC[C@@H]3C[C@@H](O)CC(=O)O3)[C@H]2[C@@H](OC(=O)C(C)(C)C)C1 [NST0005] | highest capacity to cross the BBB; also recorded: capable of crossing the blood-brain barrier | 38%
CC(C)C(=O)O[C@H]1C[C@@H](C)C=C2C=C[C@H](C)[C@H](CC[C@@H]3C[C@@H](O)CC(=O)O3)[C@H]21 [NST0004] | capable of crossing the blood-brain barrier | 
